This note sets out measurements from patent CN108159055A, “治疗乳腺癌的长效递药系统、其制备方法及应用” (XI'AN LIBANG MEDICINE SCIENCE AND TECHNOLOGY Co Ltd, priority 2018, dated 2018).

The series can be described thus: Miscibility of solvents with oils (Test Example 2 part 1, Table 2). Format: physicochemical. To be noted: no phospholipid.

Take `CC(=O)OCC(COC(C)=O)OC(C)=O.CC(=O)OCC(COC(C)=O)OC(C)=O` [三乙酸甘油酯]: the miscibility entry by setting is: (with benzyl alcohol) “混溶”; (with benzyl benzoate) “混溶”; (with ethanol) “不混溶”; (with ethyl lactate) “不混溶”.
